Assay results as given in US20220264878A1, “HERBICIDAL COMPOSITION CONTAINING R-TYPE PYRIDYLOXY CARBOXYLIC ACID DERIVATIVE AND USE THEREOF” (Qingdao Kingagroot Chemical Compound Co., Ltd., priority 2019, published 2022).

How the values were obtained:
Type in all cases: in vivo
Digitaria sanguinalis = assay: Post-emergence foliage spray, pot culture, fresh weight inhibition (Tables 151-206; 20 days)
Protocol: (§1) Table 151-206: Digitaria sanguinalis, Amaranthus retroflexus, Conyza Canadensis, Capsella bursa-pastoris, Eleusine indica were collected in Huangdao of Shandong Province, Sinapis arvensis were collected in Sixian of Anhui Province, Alopecurus japonicus were collected in Tianchang of Anhui Province, Veronica didyma were collected in Siyang of Jiangsu Province.
(§2) The above weeds were cultivated by a pot culture method. […] Full and uniform weed seeds were selected, soaked in warm water at 25° C. for 6 hours, and germinated in a 28° C. biochemical incubator (darkness). The weed seeds that had just germinatedwere evenly placed on the surface of the soil and then covered with 0.5-1 cm soil according to the sizes of seeds.
(§3) The culture was carried out in a controllable sunlight greenhouse at 20 to 30° C., in natural light, and relative humidity of 57% to 72%.
(§4) The technical materials were all dissolved in acetone, and diluted with an aqueous solution containing 0.1% emulsifier Tween-80. The dilution is performed as required.
(§5) A ratio of the active ingredient A to the active ingredient B and amounts thereof in each group depends on the characteristics and toxicity of the two agents, as well as the main application purpose of a corresponding formulation. Based on the pre-tests in this study, the dosage of the active ingredient A and B applied alone and in combination were shown in the tables. Water containing the solvent and emulsifier same with the above groups but free of the agents was used as a blank control.
(§6) Table 1-48, 51-98, 101-148, 151-206: […] per treatment, that is, a total of 60 weeds were treated in one treatment.
(§7) Table 151-206: The agents were used for only once in the experiment. In the stage of weeds with 3˜4 leaves, the weeds were thinned out to maintain 15 weeds per pot and 45 weeds for each treatment, then continued to be cultured to 4˜5 leaves stage of grassy weeds, 5˜6 leaves stage of broadleaf weeds, and treated.
(§8) The well-cultured weeds were evenly placed on a platform with an area of 0.5 m^2, and a solution of agents was sprayed on the stems and leaves thereof by the 3WP-2000-type walking spray tower at a dosage of 450 kg/ha and at a spray pressure of 0.3 MPa. After all the solution was sprayed, the valve was closed. After 30 seconds, the door of the spray tower was opened, and the nutritional bowl was taken out. Then the valve was opened, and the spray tube was cleaned by spraying 50 ml of water.
(§9) A pot-culture method was employed. For the cultivation of weeds, please refer to the Section 1.1), and “Pesticide guidelines for laboratory bioactivity tests—herbicides”. As to a method for applying agents, please refer to the section 2.3.2), that is, a foliage treatment was employed. After the treatment, the weeds were routinely cultured in a greenhouse.
(§10) A method for investigating absolute number was employed, wherein whole seedlings of survival weeds were cut off with a blade along the soil surface, and the fresh weight of the weeds was weighed with an analytical balance. For dead weeds, the fresh weight thereof was zero.
(§11) Table 151-206: The investigation was performed after 20 days of the treatment for only once.
(§12) Theoretical fresh weight inhibition rate of a combination of two active ingredients in each group was calculated by the Gowing method (E0=X+Y−X*Y/100), and then compared with an actually measured inhibition rate (E), thereby effect of the combination (hereafter referred to as combined effect) on weeds was evaluated: the value of E-E0, which was greater than 10%, corresponded to a synergistic effect, the value of E-E0, which was less than −10%, corresponded to an antagonistic effect, and the value of E-E0, which was from −10% to 10%, corresponded to an additional effect.

Alopecurus japonicus = assay: as above
Protocol: as §1, §2, §3, §4, §5, §6, §7, §8, §9, §10, §11, §12

Eleusine indica [1] = assay: as above
Protocol: as §1, §2, §3, §4, §5, §6, §7, §8, §9, §10, §11, §12

Sinapis arvensis = assay: as above
Protocol: as §1, §2, §3, §4, §5, §6, §7, §8, §9, §10, §11, §12

Conyza Canadensis = assay: Post-emergence foliage spray on Conyza Canadensis with a height of 10 cm, fresh weight inhibition (Tables 207-216; 24 days); conditions: 24 days after treatment
Protocol: as §2, §4, §5
In the stage of weeds with 6˜8 leaves, the weeds were thinned out to maintain 3 weeds per pot and 30 weeds for each treatment, then continued to be cultured to Conyza Canadensis with a height of 10 cm, and treated.
as §8, §9, §10
Wherein, in the formula, X represented the fresh weight inhibition rate of the active ingredient A in a dosage of P, and Y represented the fresh weight inhibition rate of the active ingredient B in a dosage of Q.

Eleusine indica [2] = assay: Post-emergence foliage spray, pot culture, fresh weight inhibition (Tables 1-48, 51-98, 101-148; 24 days); conditions: Table 82
Text: (§13) Table 1-48, 51-98, 101-148: Echinochloa crusgalli var. zelayensis, Eclipta prostrate, Galium aparine L., Alopecurus aequalis, Alopecurus japonicus, Lindernia procumbens, Veronica persica^1, Malachium aquaticum, Beckmannia syzigachne, Stellaria media were collected in Huai'an of Jiangsu Province; Commelina communis, Sonchus arvensis, Setaria glauca, Chloris virgata, Setaria faberi, Sonchus oleraceus L., Echinochloa oryzoides, Cirsium setosum, Xanthium strumarium were collected in Qiqiha'er of Heilongjiang Province; Sinapis arvensis, Veronica persica^2 were collected in Zhumadian of Henan Province; Ludwigia prostrate, Ammannia arenaria were collected in Zhuji of Zhejiang Province; Amaranthus retrojlexus, Descurainia sophia, Digitaria sanguinalis, Setaria viridis, Conyza Canadensis, Capsella bursa-pastoris, Eleusine indica, Ipomoea purpurea, Abutilon theophrasti, Chenopodium album, Acalypha australis, Solanum nigrum were collected in Qingdao of Shandong Province; Echinochloa caudate were collected in Pingluo of Ningxia Province.
as §2, §3, §4, §5, §6
as §7, with “1-48, 51-98, 101-148:” for “151-206:”, “5˜6” for “4˜5”, “6˜7” for “5˜6”
as §8, §9, §10
(§14) Table 1-48, 51-98, 101-148, 207-216: The investigation was performed after 24 days of the treatment for only once.

Chloris virgata = assay: as above
Text: as §13, §2, §3, §4, §5, §6
as §7, with “1-48, 51-98, 101-148:” for “151-206:”, “5˜6” for “4˜5”, “6˜7” for “5˜6”
as §8, §9, §10, §14

[3] = B alone 75 g a.i./ha, 20 days after treatment
[4] = B alone 150 g a.i./ha, 20 days after treatment
[5] = B alone 300 g a.i./ha, 20 days after treatment
[6] = B alone 600 g a.i./ha, 20 days after treatment

Structure (SMILES): O=C(O)CNCP(=O)(O)O [glyphosate]
- Control effect (%) of B applied alone in corresponding dose (Digitaria sanguinalis; B 75 g a.i./ha, 20 days): 12.3%
- Control effect (%) of B applied alone in corresponding dose (Digitaria sanguinalis; B 150 g a.i./ha, 20 days): 24.6%
- Control effect (%) of B applied alone in corresponding dose (Digitaria sanguinalis; B 300 g a.i./ha, 20 days): 43.5%
- Control effect (%) of B applied alone in corresponding dose (Digitaria sanguinalis; B 600 g a.i./ha, 20 days): 76.4%
- Control effect (%) of B applied alone in corresponding dose (Digitaria sanguinalis; [3]): 12.3%
- Control effect (%) of B applied alone in corresponding dose (Digitaria sanguinalis; [4]): 24.6%
- Control effect (%) of B applied alone in corresponding dose (Digitaria sanguinalis; [5]): 43.5%
- Control effect (%) of B applied alone in corresponding dose (Digitaria sanguinalis; [6]): 76.4%
- Control effect (%) of B applied alone in corresponding dose (Alopecurus japonicus; B 75 g a.i./ha, 20 days): 7.6%
- Control effect (%) of B applied alone in corresponding dose (Alopecurus japonicus; B 150 g a.i./ha, 20 days): 19.5%
- Control effect (%) of B applied alone in corresponding dose (Alopecurus japonicus; B 300 g a.i./ha, 20 days): 30.8%
- Control effect (%) of B applied alone in corresponding dose (Alopecurus japonicus; B 600 g a.i./ha, 20 days): 66.9%
- Control effect (%) of B applied alone in corresponding dose (Alopecurus japonicus; [3]): 7.6%
- Control effect (%) of B applied alone in corresponding dose (Alopecurus japonicus; [4]): 19.5%
- Control effect (%) of B applied alone in corresponding dose (Alopecurus japonicus; [5]): 30.8%
- Control effect (%) of B applied alone in corresponding dose (Alopecurus japonicus; [6]): 66.9%
- Control effect (%) of B applied alone in corresponding dose (Eleusine indica [1]; B 75 g a.i./ha, 20 days): 6.9%
- Control effect (%) of B applied alone in corresponding dose (Eleusine indica [1]; B 150 g a.i./ha, 20 days): 13.6%
- Control effect (%) of B applied alone in corresponding dose (Eleusine indica [1]; B 300 g a.i./ha, 20 days): 21.3%
- Control effect (%) of B applied alone in corresponding dose (Eleusine indica [1]; B 600 g a.i./ha, 20 days): 68.9%
- Control effect (%) of B applied alone in corresponding dose (Eleusine indica [1]; [3]): 6.9%
- Control effect (%) of B applied alone in corresponding dose (Eleusine indica [1]; [4]): 13.6%
- Control effect (%) of B applied alone in corresponding dose (Eleusine indica [1]; [5]): 21.3%
- Control effect (%) of B applied alone in corresponding dose (Eleusine indica [1]; [6]): 68.9%
- Control effect (%) of B applied alone in corresponding dose (Sinapis arvensis; B 75 g a.i./ha, 20 days): 2.5%
- Control effect (%) of B applied alone in corresponding dose (Sinapis arvensis; B 150 g a.i./ha, 20 days): 9.4%
- Control effect (%) of B applied alone in corresponding dose (Sinapis arvensis; B 300 g a.i./ha, 20 days): 19.8%
- Control effect (%) of B applied alone in corresponding dose (Sinapis arvensis; B 600 g a.i./ha, 20 days): 37.2%
- Control effect (%) of B applied alone in corresponding dose (Sinapis arvensis; [3]): 2.5%
- Control effect (%) of B applied alone in corresponding dose (Sinapis arvensis; [4]): 9.4%
- Control effect (%) of B applied alone in corresponding dose (Sinapis arvensis; [5]): 19.8%
- Control effect (%) of B applied alone in corresponding dose (Sinapis arvensis; [6]): 37.2%

Structure (SMILES): COC(=O)c1nc(-c2ccc(Cl)c(OC)c2F)cc(N)c1Cl [halauxifen-methyl]
- Control effect (%) of B applied alone in corresponding dose (Conyza Canadensis; B alone 3.75 g a.i./ha): 20.5%
- Control effect (%) of B applied alone in corresponding dose (Conyza Canadensis; B alone 15 g a.i./ha): 81.5%

Structure (SMILES): CS(=O)(=O)c1ccc(C(=O)C2C(=O)CCCC2=O)c([N+](=O)[O-])c1 [mesotrione]
- Control effect (%) of B applied alone in corresponding dose (Eleusine indica [2]; 15 g a.i./ha): 4.0%
- Control effect (%) of B applied alone in corresponding dose (Eleusine indica [2]; 30 g a.i./ha): 10.9%
- Control effect (%) of B applied alone in corresponding dose (Eleusine indica [2]; 60 g a.i./ha): 36.9%
- Control effect (%) of B applied alone in corresponding dose (Eleusine indica [2]; 120 g a.i./ha): 75.0%
- Control effect (%) of B applied alone in corresponding dose (Chloris virgata; B 15 g a.i./ha): 6.5%
- Control effect (%) of B applied alone in corresponding dose (Chloris virgata; B 30 g a.i./ha): 13.4%
- Control effect (%) of B applied alone in corresponding dose (Chloris virgata; B 60 g a.i./ha): 38.3%
- Control effect (%) of B applied alone in corresponding dose (Chloris virgata; B 120 g a.i./ha): 75.2%

Structure (SMILES): Nc1c(Cl)c(Cl)nc(C(=O)O)c1Cl [picloram]
- Control effect (%) of B applied alone in corresponding dose (Conyza Canadensis; B alone 7.5 g a.i./ha): 5.0%
- Control effect (%) of B applied alone in corresponding dose (Conyza Canadensis; B alone 60 g a.i./ha): 69.4%

Structure (SMILES): O=C(O)c1c(Cl)ccc2cc(Cl)cnc12 [quinclorac]
- Control effect (%) of B applied alone in corresponding dose (Conyza Canadensis; B alone 30 g a.i./ha): 11.7%
- Control effect (%) of B applied alone in corresponding dose (Conyza Canadensis; B alone 60 g a.i./ha): 28.8%
- Control effect (%) of B applied alone in corresponding dose (Conyza Canadensis; B alone 120 g a.i./ha): 53.7%
- Control effect (%) of B applied alone in corresponding dose (Conyza Canadensis; B alone 240 g a.i./ha): 76.2%

Structure (SMILES): O=C(O)COc1nc(Cl)c(Cl)cc1Cl [triclopyr]
- Control effect (%) of B applied alone in corresponding dose (Conyza Canadensis; B alone 300 g a.i./ha): 78.4%
